# Results published in ChEMBL document CHEMBL1201862, “PubChem BioAssay data set” (2004).
# The source made the active and inactive calls.
# Columns and labels:
# [1] = biological target: Delta-type opioid receptor (Homo sapiens, UniProt P41143); test: Counterscreen for agonists of heterodimerization of the mu 1 (OPRM1) and delta 1 (OPRD1) opioid receptors: Luminescence-based cell-based high throughput dose response assay to identify agonists of OPRD1 homodimerization. [Related pubchem assays (depositor defined):AID504326, AID504355, AID504692, AID504904, AID504905]; format: functional
# Delta-type opioid receptor, sequence (P41143 whole entry): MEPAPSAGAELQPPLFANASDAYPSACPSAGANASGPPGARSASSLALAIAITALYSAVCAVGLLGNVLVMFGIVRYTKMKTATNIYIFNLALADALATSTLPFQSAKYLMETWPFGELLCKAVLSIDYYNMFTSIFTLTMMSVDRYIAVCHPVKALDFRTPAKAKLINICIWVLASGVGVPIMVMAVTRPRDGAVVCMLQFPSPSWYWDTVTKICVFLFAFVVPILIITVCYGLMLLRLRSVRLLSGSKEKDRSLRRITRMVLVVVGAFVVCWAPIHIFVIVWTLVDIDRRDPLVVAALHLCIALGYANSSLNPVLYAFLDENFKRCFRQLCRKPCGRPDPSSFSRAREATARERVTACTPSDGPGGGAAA
# [2] = biological target: T1, DNA repair protein RAD52 homolog (Homo sapiens, UniProt P43351); format: functional, biochemical
# T1 sequence (P43351 whole entry): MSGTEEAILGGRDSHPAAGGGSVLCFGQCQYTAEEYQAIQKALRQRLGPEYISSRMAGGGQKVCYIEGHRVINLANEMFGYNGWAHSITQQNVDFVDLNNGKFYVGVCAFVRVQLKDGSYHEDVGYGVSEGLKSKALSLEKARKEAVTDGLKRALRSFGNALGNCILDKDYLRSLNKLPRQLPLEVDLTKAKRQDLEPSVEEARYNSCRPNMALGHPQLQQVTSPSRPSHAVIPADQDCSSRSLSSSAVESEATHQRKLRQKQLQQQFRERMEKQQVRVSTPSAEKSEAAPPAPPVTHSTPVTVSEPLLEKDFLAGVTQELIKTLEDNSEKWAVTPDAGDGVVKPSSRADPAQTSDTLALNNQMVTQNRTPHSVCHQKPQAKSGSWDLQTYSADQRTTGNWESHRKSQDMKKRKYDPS
# Mu-type opioid receptor = Mu-type opioid receptor (Homo sapiens, UniProt P35372); test: Counterscreen for agonists of heterodimerization of the mu 1 (OPRM1) and delta 1 (OPRD1) opioid receptors: Luminescence-based cell-based high throughput dose response assay to identify agonists of OPRM1 homodimerization.; format: functional;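 further: U2OS cells expressing OPRM1 and beta-arrestin as split beta-galactosidase partners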
# Mu-type opioid receptor, sequence (P35372 whole entry): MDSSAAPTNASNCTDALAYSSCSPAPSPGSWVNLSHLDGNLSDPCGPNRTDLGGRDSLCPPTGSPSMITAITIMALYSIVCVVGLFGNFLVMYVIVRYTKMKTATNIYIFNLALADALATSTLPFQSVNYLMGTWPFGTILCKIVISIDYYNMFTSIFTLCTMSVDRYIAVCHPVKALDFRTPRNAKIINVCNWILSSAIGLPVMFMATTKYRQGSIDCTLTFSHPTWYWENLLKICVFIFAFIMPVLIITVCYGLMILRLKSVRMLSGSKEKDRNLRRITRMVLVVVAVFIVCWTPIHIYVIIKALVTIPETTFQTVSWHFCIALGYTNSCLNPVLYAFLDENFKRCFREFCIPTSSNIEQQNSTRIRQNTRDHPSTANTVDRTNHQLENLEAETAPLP
# [3] = biological target: 5-hydroxytryptamine receptor 5A (Homo sapiens, UniProt P47898); test: Counterscreen for agonists of OPRM1-OPRD1 heterodimerization: luminescence-based cell-based high throughput dose response assay to identify agonists of 5-hydroxytryptamine (serotonin) 5A receptor (HTR5A). [Related pubchem assays (depositor defined):AID504326, AID504355, AID504692, AID504904, AID504905]; format: functional
# 5-hydroxytryptamine receptor 5A, sequence (P47898 whole entry): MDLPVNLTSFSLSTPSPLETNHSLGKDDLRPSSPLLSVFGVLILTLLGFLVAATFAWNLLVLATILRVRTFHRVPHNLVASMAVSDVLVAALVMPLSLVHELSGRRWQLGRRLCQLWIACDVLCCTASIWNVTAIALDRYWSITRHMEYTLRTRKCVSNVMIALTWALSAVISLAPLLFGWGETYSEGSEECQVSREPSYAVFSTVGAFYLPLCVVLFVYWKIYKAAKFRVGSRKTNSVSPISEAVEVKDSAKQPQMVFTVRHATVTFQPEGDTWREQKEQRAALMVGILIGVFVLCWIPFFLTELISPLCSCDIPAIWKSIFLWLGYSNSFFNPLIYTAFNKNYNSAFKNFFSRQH
# [4] = biological target: T2, Short transient receptor potential channel 4 (Mus musculus, UniProt Q9QUQ5); test: calcium entry via TRPC4 opening agents – cell-based, HEK293 TRPC4/mu-opioid, Fluo-4 calcium, dose response (AID 434937); format: functional
# T2 sequence (Q9QUQ5 whole entry): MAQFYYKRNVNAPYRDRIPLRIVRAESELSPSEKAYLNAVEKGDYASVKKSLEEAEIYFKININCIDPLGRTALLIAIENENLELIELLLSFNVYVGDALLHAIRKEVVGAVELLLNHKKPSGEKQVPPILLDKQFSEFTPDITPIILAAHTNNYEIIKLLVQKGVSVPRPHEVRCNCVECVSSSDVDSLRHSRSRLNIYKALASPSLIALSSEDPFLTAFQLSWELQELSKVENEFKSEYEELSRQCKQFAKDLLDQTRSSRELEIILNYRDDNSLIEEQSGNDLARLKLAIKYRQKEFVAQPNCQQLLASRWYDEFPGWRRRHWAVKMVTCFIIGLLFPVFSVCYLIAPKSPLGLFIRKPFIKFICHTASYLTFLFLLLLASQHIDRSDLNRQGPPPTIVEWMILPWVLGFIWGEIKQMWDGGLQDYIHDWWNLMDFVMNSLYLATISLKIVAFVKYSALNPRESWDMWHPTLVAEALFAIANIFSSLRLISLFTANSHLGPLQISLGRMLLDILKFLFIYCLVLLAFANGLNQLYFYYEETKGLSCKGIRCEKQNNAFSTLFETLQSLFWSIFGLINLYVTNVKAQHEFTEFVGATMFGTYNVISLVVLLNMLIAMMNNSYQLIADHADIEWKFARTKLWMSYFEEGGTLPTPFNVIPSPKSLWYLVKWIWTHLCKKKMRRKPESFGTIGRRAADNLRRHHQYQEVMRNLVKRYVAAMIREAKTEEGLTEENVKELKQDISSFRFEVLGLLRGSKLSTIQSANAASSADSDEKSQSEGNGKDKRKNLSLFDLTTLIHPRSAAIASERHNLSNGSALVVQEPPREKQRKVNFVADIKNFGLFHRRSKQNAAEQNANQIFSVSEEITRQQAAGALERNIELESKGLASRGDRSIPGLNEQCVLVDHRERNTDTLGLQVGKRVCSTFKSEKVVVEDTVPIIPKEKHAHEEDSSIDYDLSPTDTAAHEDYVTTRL
# [5] = biological target: T3, Sentrin-specific protease 6 (Homo sapiens, UniProt Q9GZR1); format: functional;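 further: Luminescence-based dose-response confirmatory assay of SENP6 inhibition, following up an ultra-high-throughput screen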
# T3 sequence (Q9GZR1 whole entry): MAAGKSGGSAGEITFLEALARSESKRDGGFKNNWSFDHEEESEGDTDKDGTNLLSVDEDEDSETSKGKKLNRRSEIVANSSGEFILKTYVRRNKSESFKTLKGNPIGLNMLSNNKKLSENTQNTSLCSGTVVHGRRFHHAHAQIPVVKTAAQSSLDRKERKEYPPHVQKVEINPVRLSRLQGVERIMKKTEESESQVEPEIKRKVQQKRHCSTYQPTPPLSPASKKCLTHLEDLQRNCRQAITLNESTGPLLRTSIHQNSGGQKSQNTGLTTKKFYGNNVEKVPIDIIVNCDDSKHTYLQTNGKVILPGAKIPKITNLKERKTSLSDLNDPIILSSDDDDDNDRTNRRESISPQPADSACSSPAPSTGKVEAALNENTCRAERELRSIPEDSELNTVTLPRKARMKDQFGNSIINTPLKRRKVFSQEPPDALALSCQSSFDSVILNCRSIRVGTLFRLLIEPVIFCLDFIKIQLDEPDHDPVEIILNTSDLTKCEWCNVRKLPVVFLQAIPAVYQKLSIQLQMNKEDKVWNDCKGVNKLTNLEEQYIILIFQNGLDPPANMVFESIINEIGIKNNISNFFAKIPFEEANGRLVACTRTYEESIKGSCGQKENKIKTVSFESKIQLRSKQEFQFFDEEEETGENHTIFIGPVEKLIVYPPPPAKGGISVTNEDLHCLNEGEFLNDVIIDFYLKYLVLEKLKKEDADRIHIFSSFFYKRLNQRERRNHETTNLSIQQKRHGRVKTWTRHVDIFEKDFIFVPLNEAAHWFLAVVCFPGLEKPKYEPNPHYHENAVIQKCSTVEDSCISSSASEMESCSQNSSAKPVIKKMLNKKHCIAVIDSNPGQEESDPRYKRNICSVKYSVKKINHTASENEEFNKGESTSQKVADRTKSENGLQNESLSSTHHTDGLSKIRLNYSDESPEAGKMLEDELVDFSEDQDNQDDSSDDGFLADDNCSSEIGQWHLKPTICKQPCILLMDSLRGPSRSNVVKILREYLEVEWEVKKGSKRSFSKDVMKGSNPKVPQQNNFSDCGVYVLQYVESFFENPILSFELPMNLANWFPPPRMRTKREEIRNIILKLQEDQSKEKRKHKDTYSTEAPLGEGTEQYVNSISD
# [6] = biological target: T4, Sentrin-specific protease 7 (Homo sapiens, UniProt Q9BQF6); format: functional;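 further: Luminescence-based dose-response confirmation of ultra-high-throughput screening hits, measuring inhibition of SENP7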
# T4 sequence (Q9BQF6 whole entry): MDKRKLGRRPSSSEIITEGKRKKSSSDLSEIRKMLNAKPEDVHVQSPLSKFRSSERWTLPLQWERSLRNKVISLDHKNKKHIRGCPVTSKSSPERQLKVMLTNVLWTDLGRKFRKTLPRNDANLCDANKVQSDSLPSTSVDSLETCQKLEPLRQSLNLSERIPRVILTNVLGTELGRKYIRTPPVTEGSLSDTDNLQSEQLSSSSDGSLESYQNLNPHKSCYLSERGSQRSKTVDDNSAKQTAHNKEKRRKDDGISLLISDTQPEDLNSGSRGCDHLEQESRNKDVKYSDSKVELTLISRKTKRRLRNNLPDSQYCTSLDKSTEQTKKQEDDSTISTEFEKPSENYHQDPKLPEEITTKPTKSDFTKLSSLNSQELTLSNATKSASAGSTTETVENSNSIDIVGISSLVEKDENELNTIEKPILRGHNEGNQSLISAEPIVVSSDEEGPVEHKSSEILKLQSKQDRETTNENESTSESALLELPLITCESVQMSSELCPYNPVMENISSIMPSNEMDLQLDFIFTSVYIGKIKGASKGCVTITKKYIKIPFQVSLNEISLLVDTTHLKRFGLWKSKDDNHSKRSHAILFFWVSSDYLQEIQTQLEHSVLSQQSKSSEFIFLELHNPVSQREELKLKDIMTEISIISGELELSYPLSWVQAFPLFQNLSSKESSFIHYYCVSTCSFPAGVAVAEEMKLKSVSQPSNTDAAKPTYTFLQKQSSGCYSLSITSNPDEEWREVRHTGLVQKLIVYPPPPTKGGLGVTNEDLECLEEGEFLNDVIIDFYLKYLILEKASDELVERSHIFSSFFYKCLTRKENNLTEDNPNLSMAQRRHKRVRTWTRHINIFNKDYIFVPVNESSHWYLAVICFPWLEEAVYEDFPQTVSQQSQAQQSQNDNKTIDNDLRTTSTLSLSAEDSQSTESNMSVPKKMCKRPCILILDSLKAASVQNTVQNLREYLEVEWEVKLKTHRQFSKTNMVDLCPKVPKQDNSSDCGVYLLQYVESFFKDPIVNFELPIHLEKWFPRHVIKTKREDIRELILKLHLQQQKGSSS
# Caspase-3 = biological target: T5, Caspase-3 (Homo sapiens, UniProt P42574); format: functional;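 further: Dose-response selectivity test against caspase-3 for candidate inhibitors of sentrin-specific proteases (SENPs)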
# T5 sequence (P42574 whole entry): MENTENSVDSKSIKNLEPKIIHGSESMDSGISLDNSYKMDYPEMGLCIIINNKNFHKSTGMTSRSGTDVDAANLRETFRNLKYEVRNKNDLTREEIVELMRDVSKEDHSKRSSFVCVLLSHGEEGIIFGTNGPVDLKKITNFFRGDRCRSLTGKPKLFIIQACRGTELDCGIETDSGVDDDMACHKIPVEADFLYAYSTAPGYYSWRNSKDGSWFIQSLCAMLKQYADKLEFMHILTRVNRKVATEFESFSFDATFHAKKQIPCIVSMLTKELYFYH
# [7] = biological target: T6, Sentrin-specific protease 8 (Homo sapiens, UniProt Q96LD8); format: functional;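 further: luminescence read-out of SENP8 inhibition, dose-response confirmation following an ultra-high-throughput screen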
# T6 sequence (Q96LD8 whole entry): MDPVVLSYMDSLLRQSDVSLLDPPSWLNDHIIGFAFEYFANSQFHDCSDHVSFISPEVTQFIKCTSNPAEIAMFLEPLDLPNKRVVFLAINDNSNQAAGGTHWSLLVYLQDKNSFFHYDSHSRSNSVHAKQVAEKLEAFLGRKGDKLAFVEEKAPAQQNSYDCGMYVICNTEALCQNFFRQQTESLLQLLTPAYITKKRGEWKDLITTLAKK
# [8] = viability of uninfected HEp-2 cells – cell-based, HTS, cytotoxicity control for RSV inhibitor project, dose response (AID 2410); format: functional; conditions: human respiratory syncytial virus
# [9] = IGROV1 cell killing – plate reader, dry powder samples, PAX8 inhibitor project, dose response (AID 743043); format: functional, cell-based; conditions: IGROV-1
# Paired box protein Pax-8 = Paired box protein Pax-8 (Homo sapiens, UniProt Q06710); test: PAX8 transcriptional activity inhibition in RMG-I – RMG-I cells, luciferase, cherry-pick, dose response (AID 687027); format: functional, cell-based;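 further: luciferase reporter driven by Pax8 target thyroperoxidase promoter measured by SteadyGlo luminescence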
# Paired box protein Pax-8, sequence (Q06710 whole entry): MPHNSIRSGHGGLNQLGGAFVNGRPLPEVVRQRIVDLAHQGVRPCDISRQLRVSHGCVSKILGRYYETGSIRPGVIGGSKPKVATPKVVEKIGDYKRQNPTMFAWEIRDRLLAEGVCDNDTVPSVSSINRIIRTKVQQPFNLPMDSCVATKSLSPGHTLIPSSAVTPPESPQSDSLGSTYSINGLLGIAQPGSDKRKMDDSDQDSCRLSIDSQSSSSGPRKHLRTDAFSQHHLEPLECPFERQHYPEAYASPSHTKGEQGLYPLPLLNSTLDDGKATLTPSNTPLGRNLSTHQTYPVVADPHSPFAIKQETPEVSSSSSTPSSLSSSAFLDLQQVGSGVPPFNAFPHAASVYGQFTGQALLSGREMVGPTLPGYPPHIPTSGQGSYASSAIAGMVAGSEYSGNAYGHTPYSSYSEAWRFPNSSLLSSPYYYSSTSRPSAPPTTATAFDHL
# Cytochrome P450 3A4 = Cytochrome P450 3A4 (Homo sapiens, UniProt P08684);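 further: CYP3A4 tested as one member of a cytochrome P450 panel screen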
# Cytochrome P450 3A4, sequence (P08684 whole entry): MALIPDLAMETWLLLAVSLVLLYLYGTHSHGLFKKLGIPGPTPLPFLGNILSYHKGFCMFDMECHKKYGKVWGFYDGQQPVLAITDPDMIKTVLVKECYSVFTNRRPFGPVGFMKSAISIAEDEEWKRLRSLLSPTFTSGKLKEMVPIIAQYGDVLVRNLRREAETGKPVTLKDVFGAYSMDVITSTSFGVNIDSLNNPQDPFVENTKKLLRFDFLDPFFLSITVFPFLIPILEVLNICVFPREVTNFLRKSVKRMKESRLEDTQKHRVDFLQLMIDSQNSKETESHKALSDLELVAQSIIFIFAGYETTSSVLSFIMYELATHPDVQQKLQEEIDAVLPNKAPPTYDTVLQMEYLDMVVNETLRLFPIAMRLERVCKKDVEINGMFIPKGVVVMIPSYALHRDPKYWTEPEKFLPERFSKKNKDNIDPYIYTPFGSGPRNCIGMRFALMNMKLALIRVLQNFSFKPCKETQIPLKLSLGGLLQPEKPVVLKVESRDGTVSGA
# [10] = biological target: T7, Probable nicotinate-nucleotide adenylyltransferase (Staphylococcus aureus (strain N315), UniProt P65502); format: functional, Staphylococcus aureus subsp. aureus N315;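 on IC50 Mean: confirmatory dose-response retesting of NadD inhibitor hits first found in an ultra-high-throughput screen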
# T7 sequence (P65502 whole entry): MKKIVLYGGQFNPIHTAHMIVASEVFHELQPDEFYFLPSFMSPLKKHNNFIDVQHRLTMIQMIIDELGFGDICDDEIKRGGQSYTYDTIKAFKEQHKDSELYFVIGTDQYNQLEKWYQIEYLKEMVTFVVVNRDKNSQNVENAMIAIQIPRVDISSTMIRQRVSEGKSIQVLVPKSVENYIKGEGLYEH
# [11] = biological target: T7, Probable nicotinate-nucleotide adenylyltransferase; format: functional, Staphylococcus aureus subsp. aureus N315; conditions: read-out: IC50_Mean
# [12] = biological target: T8, Carboxy-terminal domain RNA polymerase II polypeptide A small phosphatase 1 (Homo sapiens, UniProt Q9GZU7); test: CTDSP1 inhibitors, concentration-response, biochemical, absorbance readout, ultra-high-throughput screen actives (AID 540297); format: functional
# T8 sequence (Q9GZU7 whole entry): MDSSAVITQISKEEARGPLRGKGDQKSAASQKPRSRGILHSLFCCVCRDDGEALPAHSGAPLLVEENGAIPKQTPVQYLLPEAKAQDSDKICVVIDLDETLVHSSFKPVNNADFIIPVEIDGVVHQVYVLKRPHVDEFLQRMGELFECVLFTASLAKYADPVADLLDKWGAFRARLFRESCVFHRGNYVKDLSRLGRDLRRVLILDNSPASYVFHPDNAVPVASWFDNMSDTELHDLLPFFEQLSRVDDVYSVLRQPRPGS
SMILES,IC50 [5],IC50 [6],IC50 (Caspase-3),IC50 [7],other results
CC1CN(C)C(C)c2c1oc1ccc(N)cc21 (stereo not given),,,,,EC50 [1]: > 92.5 µM (inactive); AC50 [2]: 9.06 µM (active); EC50 (Mu-type opioid receptor): > 92.5 µM (inactive); EC50 [3]: > 92.5 µM (inactive); EC50 [4]: 0.841 µM (active)
CC(C)CSC1=NSC2=NC(=O)/C(=C\c3cccs3)C(=N)N12,14.9 µM (active),24.2 µM (active),26.8 µM (active),18.5 µM (active),
Oc1c(-c2cc(-c3ccco3)[nH]n2)ccc2ccccc12,15 µM (active),4.87 µM (active),59.7 µM (active),19.3 µM (active),
O=C(COc1ccc2ccccc2c1)Nc1ccccc1C(=O)O,25.5 µM (active),13.4 µM (active),15.2 µM (active),43.4 µM (active),IC50 (cells): 41.5 µM (active); CC50 [8]: 32.9 µM (active)
C[C@@H]1ON(C)[C@H]2C[C@H]3c4cc(-c5cc6ccccc6o5)ccc4CCN3C[C@@H]12,,,,,AC50 [2]: 28.7 µM (active)
C[C@H](CO)N1C[C@H](C)[C@H](CN(C)S(=O)(=O)c2ccc(F)cc2)OCCCC[C@H](C)Oc2ccc(NS(=O)(=O)c3ccc(Cl)cc3)cc2C1=O,,,,,AC50 [9]: 54.7 µM (active); AC50 (Paired box protein Pax-8): 10.1 µM (active)
C/C(=N\NC(=O)c1ccc(Br)cc1)c1ccccc1,6.55 µM (active),4.62 µM (active),4.06 µM (active),> 100 µM (inactive),AC50 (Cytochrome P450 3A4): 15.8 µM (inconclusive)
O=C(O)Cc1sc(N/N=C\c2ccccc2)nc1-c1ccccc1,,,,,IC50 [10]: 9.86 µM (active); IC50 [11]: 27.7 µM (active); IC50 [12]: 5.14 µM (active)
